These molecules were tested against T1, Tyrosine-protein phosphatase non-receptor type 1 (Homo sapiens, UniProt P18031) (assay: Inhibitory activity against PTP1B as a model Protein tyrosine […] (PTP) using fluorescein diphosphate as substrate at Km concentration (20 uM) at th).
T1 sequence (P18031 whole entry): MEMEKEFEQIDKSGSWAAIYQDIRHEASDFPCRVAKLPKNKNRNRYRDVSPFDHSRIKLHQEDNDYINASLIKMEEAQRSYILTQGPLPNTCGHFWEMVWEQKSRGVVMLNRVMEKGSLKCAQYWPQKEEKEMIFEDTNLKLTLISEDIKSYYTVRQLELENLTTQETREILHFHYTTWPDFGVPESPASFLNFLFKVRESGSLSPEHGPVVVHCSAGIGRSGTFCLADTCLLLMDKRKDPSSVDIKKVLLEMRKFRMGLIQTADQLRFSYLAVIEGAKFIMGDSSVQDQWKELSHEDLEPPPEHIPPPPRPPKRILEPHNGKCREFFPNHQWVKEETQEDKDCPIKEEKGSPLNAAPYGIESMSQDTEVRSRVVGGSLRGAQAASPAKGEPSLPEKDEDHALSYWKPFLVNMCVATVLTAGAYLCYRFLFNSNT
Work on `O=P(O)(O)OC(F)(F)c1cccc(-c2ccccc2)c1` yielded an IC50 of 15 µM.

The molecules below were run against T1, Tyrosine-protein phosphatase non-receptor type 1 (assay: Inhibitory activity against protein tyrosine phosphatase 1B (PTP1B) using fluorescein diphosphate as substrate at Km concentration (20 uM)).
With `O=C(O)C(F)(Oc1cccc(-c2ccccc2)c1)C(=O)O` the IC50 was 250 µM.
`O=P(O)(O)OC(F)(F)c1ccc2ccccc2c1` showed an IC50 of 35 µM.
`O=C(O)C(F)(F)c1ccc2ccccc2c1` showed an IC50 of 640 µM.
`FC(F)(c1cccc(-c2ccccc2)c1)c1nnn[nH]1` was tested, and the IC50 was 195 µM.
For `O=S(=O)(O)C(F)(F)c1cccc(-c2ccccc2)c1`, the IC50 was 115 µM.
Work on `O=S(=O)(O)C(F)(F)c1ccc2ccccc2c1` yielded an IC50 of 175 µM.
Work on `FC(F)(c1ccc2ccccc2c1)c1nnn[nH]1` yielded an IC50 of 230 µM.
Work on `O=C(O)C(F)(F)c1cccc(-c2ccccc2)c1` yielded an IC50 of 435 µM.
`O=C(O)C(F)(Oc1ccc2ccccc2c1)C(=O)O` was tested, and the IC50 was 320 µM.

The molecules below were run against T2, Tyrosine-protein phosphatase non-receptor type 1 (Homo sapiens) (UniProt P18031) (assay: Inhibitory activity against protein tyrosine phosphatase 1B (PTP1B) at 500 uM conc. using fluorescein diphosphate as substrate at Km concentration (20 uM)).
T2 sequence (whole entry): T1 sequence (P18031 whole entry)
In the case of `O=P(O)(O)Cc1ccc2ccccc2c1`, the inhibition is reported as 9%.
For `c1ccc2cc(Cc3nnn[nH]3)ccc2c1`, the inhibition was 12%.
With `O=S(=O)(O)Cc1cccc(-c2ccccc2)c1` the inhibition was 10%.
In the case of `O=P(O)(O)Cc1cccc(-c2ccccc2)c1`, the inhibition is reported as 17%.
For `O=S(=O)(O)Cc1ccc2ccccc2c1`, the inhibition was 5%.
Molecule `O=C(O)Cc1ccc2ccccc2c1` has an inhibition of 4%.
For `c1ccc(-c2cccc(Cc3nnn[nH]3)c2)cc1`, the inhibition was 15%.
`O=C(O)Cc1cccc(-c2ccccc2)c1` was tested, and the inhibition was 10%.

What follows are molecules tested against T1, Tyrosine-protein phosphatase non-receptor type 1 (assay: Binding affinity against Protein tyrosine phosphatase-1B (PTP1B)).
`FC(F)(c1cccc(-c2ccccc2)c1)c1nnn[nH]1` gave a Ki of 98 µM.
With `O=S(=O)(O)C(F)(F)c1cccc(-c2ccccc2)c1` the Ki was 49 µM.

Reference: ChEMBL document CHEMBL1130679, “Novel phosphate mimetics for the design of non-peptidyl inhibitors of protein tyrosine phosphatases” (Bioorg Med Chem Lett, 1998)
